We go through 3 molecules from patent US20060009618A1, “Expression receptors with 7 transmembrane domains in baculovirus-insect cell system” (priority 2002, published 2006).

Test [1] deals with non-infected Sf9 cells. Briefly: Calcium imaging (fura-2) in non-infected Sf9 cells. It is filed as cell-based, Spodoptera frugiperda. Conditions: ionophore at 5 μM, FIG. 2 top graph. As for the experimental part:
In a first series of experiments, the possibility of measuring the calcium response in Sf9 cells using the calcium imaging technique was tested.
The protocol used for the assays is as follows:
(§1) Sf9 cells are cultured on 24-well plates containing 12 mm coverslips. Before the experiments, the culture medium is removed and washed with a buffer containing 10 mM of NaCl, 60 mM of KCl, 25 mM of MgCl2, 1.8 mM of CaCl2, 4 mM of D-glucose, 110 mM of sucrose and 10 mM of 2-(N-morpholino)ethanesulfonic acid; the pH is adjusted to 6.2 at ambient temperature with Trizma base.
The cells are incubated for 1 hour at ambient temperature in the dark with a solution of MBS containing fura 2-AM (4 μm) (molecular probe). […]
The fura-2 fluorescence measurements are carried out using a T.I.L.L Photonics GmbH, (Planegg) Polychrome II multipath wavelength illumination system for extinction. […] The acquisition and the calculation of the fluorescence images are carried out using the T.I.L.L-Vision program. […] The fluorescence ratios (f340/f380) are calculated for the intracellular Ca^2+ variations. […]
The Ca^2+ signals are the result of the mean determined on all the cells in the field of the camera (gray signal) and of the mean for the responding cells (black signal) (n=4).

Test [2] concerns octopamine receptor naturally present in Sf9 cells. Briefly: Octopamine control, calcium imaging (fura-2) in Sf9 cells. It counts as cell-based, Spodoptera frugiperda. Conditions: 50 μM. As for the experimental part:
as §1
The cells are incubated for 1 hour at ambient temperature in the dark with a solution of MBS containing fura 2-AM (4 μm) (molecular probe). The cells are then washed with an excess of MBS without fura 2-AM and mounted in a Coverwell chamber (Polylabo, France) (diameter: 9 mm; thickness: 2.5 mm; cross section: 22.5).
The chamber is placed under the microscope and the cells are perfused under gravity with 0.85 ml/min (3.78 cm/min) at ambient temperature (23° C.).
The fura-2 fluorescence measurements are carried out using a T.I.L.L Photonics GmbH, (Planegg) Polychrome II multipath wavelength illumination system for extinction. The microscope (Olympus) is equipped with a long-distance objective (×20). The spatio-temporal Ca^2+ distributions are studied using a PCO interline camera. […] The acquisition and the calculation of the fluorescence images are carried out using the T.I.L.L-Vision program. […] The fluorescence ratios (f340/f380) are calculated for the intracellular Ca^2+ variations. […]

Test [3] deals with T1, HA-Gα16 (Gα16 protein with N-terminal HA epitope), expressed in Sf9 cells (human, UniProt P30679 1-374).
T1 construct: whole, on cells; Intracellular protein with a submembrane cytoplasmic location in infected Sf9 cells; also called Ga16; G16
T1 sequence (looked up): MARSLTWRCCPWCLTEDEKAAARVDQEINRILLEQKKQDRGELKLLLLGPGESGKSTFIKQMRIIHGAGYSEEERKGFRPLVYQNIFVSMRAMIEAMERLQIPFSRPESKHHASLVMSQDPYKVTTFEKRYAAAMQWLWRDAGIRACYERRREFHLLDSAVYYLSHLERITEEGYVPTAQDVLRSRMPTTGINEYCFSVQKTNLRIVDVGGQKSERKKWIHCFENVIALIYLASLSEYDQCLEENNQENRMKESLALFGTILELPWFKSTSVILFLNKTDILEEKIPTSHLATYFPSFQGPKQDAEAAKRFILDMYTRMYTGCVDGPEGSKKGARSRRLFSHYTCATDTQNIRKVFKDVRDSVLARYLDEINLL
The test is described as follows: colocalization by immunofluorescence, confocal microscopy, Sf9 cells infected with double-recombinant baculovirus. As for the experimental part:
The cellular location of the ORs and of the G proteins were studied by immunofluorescence 36 hours after infection. The ORs are detected by means of an anti-FLAG primary antibody and an FITC-labeled secondary antibody. The G proteins are detected by means of a rhodamine-labeled anti-HA antibody.
The labeled cells are observed by confocal microscopy. In the cells infected with the AcMNPV209 and AcMNPV210 baculoviruses, labeling is observed to be located at the cell surface, with a punctate distribution typical of membrane receptors. In the cells infected with the AcSLP10G₁₆ and AcSLP10Golf baculoviruses, labeling is observed to have a submembrane cytoplasmic location. In the cells infected with the double-recombinant baculoviruses AcG₁₆-209, AcGolf-210, AcG₁₆-209 and AcGolf-210, colocalization of the receptor with each G protein co-expressed is observed. No major difference is observed between OR17-209 and OR17-210 as regards preferential binding with Golf or G₁₆. It therefore appears that these two receptors are capable of coupling to the two G proteins in insect cells.

Regarding `CNc1c(Br)cc2oc(C[C@H]3O[C@@]4(CC[C@H]3C)O[C@H]([C@H](C)C(=O)c3ccc[nH]3)[C@H](C)C[C@H]4C)nc2c1C(=O)O` [4-bromo A23187, 4-bromo-A23187], the “intracellular Ca2+ variation (fluorescence ratio f340/f380)” value in test [1] is on record as “induces a large increase in intracellular calcium”.
As for `NCC(O)c1ccc(O)cc1` (stereo not shown) [octopamine], in test [2] (all baculovirus-infected Sf9 cells (OR17-209 or OR17-210 alone, with G16 or with Golf), 36 hours after infection, FIG. 3), the intracellular calcium entry was “induces an increase in intracellular calcium”. In test [2] (non-infected Sf9 cells, FIG. 2 bottom graph, B), the “intracellular Ca2+ variation (fluorescence ratio f340/f380)” value was “induces an increase in intracellular calcium”.

B1: human olfactory receptor OR17-209 with N-terminal FLAG epitope, expressed in Sf9 cells from baculovirus AcMNPV209 (receptor, UniProt P47890 1-313, looked up, not shown: small tags and cut ends)
chain: MEGKNLTSISECFLLGFSEQLEEQKPLFGSFLFMYLVTVAGNLLIILVIITDTQLHTPMYFFLANLSLADACFVSTTVPKMLANIQIQSQAISYSGCLLQLYFFMLFVMLEAFLLAVMAYDCYVAICHPLHYILIMSPGLCIFLVSASWIMNALHSLLHTLLMNSLSFCANHEIPHFFCDINPLLSLSCTDPFTNELVIFITGGLTGLICVLCLIISYTNVFSTILKIPSAQGKRKAFSTCSSHLSVVSLFFGTSFCVDFSSPSTHSAQKDTVASVMYTVVTPMLNPFIYSLRNQEIKSSLRKLIWVRKIHSP
notes: whole, on cells; The construct encodes EGT signal peptide, FLAG and receptor; also called OR-209
As for B1, the binding result in test [3] is recorded as “binds”.
